Data as given in patent publication US8796310B2, “Amino-pyridine-containing spleen tyrosine kinase (SYK) inhibitors” (Merck Sharp & Dohme Corp., priority 2011, dated 2014).
Where a name gives a salt, the structure may show the parent alone.

Assays:
[1] = biological target: recombinant human GST-Syk (Homo sapiens (Human), UniProt P43405); assay: Homogeneous Time-Resolved Fluorescence (HTRF) assay for the recombinant human Syk enzyme; format: biochemical; settings: GST-hSyk 5 pM, ATP 25 μM, 10-dose titration 10 μM to 0.508 nM; values below lowest test concentration given as <0.50
Method: Biological Assay Homogeneous Time-Resolved Fluorescence (HTRF) Assay for the Recombinant Human Syk Enzyme
A recombinant GST-hSyk fusion protein was used to measure potency of compounds to inhibit human Syk activity. […] Final volume of the reaction was 10 μL. Phosphorylation of the peptide was allowed to proceed for 45′ at rt. To quench the reaction and detect the phosphorylated product, 2 nM of a Europium-anti-phosphotyrosine antibody (Perkin Elmer #AD0161) and 70 nM SA-APC (Perkin-Elmer #CR130-100) were added together in 15 mM Tris pH 7.5, 40 mM EDTA, 0.01% tween 20. Final volume of the quenching solution was 10 μL. The resulting HTRF signal was measured after 30 minutes on a EnVision (Perkin-Elmer) reader using a time-resolved fluorescence protocol.

[2] = phase II clinical trial, allergic rhinitis; cited from earlier work
PGD2 = settings: dosed intranasally, phase I/II study, allergic rhinitis; cited from earlier work

| SMILES | IC50 [1] [nM] | further results |
| --- | --- | --- |
| Cc1cc(Nc2cc(OC(C)(C)C)ccn2)nc(-c2cnc([C@@]3(O)CCCc4cc(C(=O)O)ccc43)s2)c1 [Example 1, (R)-5-(5-{6-[(4-Tert-butoxypyridin-2-yl)amino]-4-methylpyridin-2-yl}-1,3-thiazol-2-yl)-5-hydroxy-5,6,7,8-tetrahydronaphthalene-2-carboxylic acid, ammonia salt] | < 0.5 |  |
| Cc1ccnc(Nc2cc(C)cc(-c3cnc(C4(O)CCCc5cc(C(=O)O)ccc54)s3)n2)c1 (stereo not drawn) [Example 1H, 5-hydroxy-5-(5-{4-methyl-6-[(4-methylpyridin-2-yl)amino]pyridin-2-yl}-1,3-thiazol-2-yl)-5,6,7,8-tetrahydronaphthalene-2-carboxylic acid] | < 0.5 |  |
| Cc1cc(Nc2cc(-n3ccc(C)n3)ccn2)nc(-c2cnc(C3(O)CCCc4cc(C(=O)O)ccc43)s2)c1 (stereo not drawn) [Example 1J, 5-hydroxy-5-[5-(4-methyl-6-{[4-(3-methyl-1H-pyrazol-1-yl)pyridin-2-yl]amino}pyridin-2-yl)-1,3-thiazol-2-yl]-5,6,7,8-tetrahydronaphthalene-2-carboxylic acid] | < 0.5 |  |
| Cc1cc(Nc2cc(C3CCC3)ccn2)nc(-c2cnc(C3(O)CCCc4cc(C(=O)O)ccc43)s2)c1 (stereo not drawn) [Example 1K, 5-(5-{6-[(4-cyclobutylpyridin-2-yl)amino]-4-methylpyridin-2-yl}-1,3-thiazol-2-yl)-5-hydroxy-5,6,7,8-tetrahydronaphthalene-2-carboxylic acid] | < 0.5 |  |
| CCCc1ccnc(Nc2cc(C)cc(-c3cnc(C4(O)CCCc5cc(C(=O)O)ccc54)s3)n2)c1 (stereo not drawn) [Example 1M, 5-hydroxy-5-(5-{4-methyl-6-[(4-propylpyridin-2-yl)amino]pyridin-2-yl}-1,3-thiazol-2-yl)-5,6,7,8-tetrahydronaphthalene-2-carboxylic acid] | < 0.5 |  |
| CCOc1ccnc(Nc2cc(C)cc(-c3cnc(C4(O)CCCc5cc(C(=O)O)ccc54)s3)n2)c1 (stereo not drawn) [Example 1N, 5-(5-{6-[(4-ethoxypyridin-2-yl)amino]-4-methylpyridin-2-yl}-1,3-thiazol-2-yl)-5-hydroxy-5,6,7,8-tetrahydronaphthalene-2-carboxylic acid] | < 0.5 |  |
| CCc1ccnc(Nc2cc(C)cc(-c3cnc(C4(O)CCCc5cc(C(=O)O)ccc54)s3)n2)c1 (stereo not drawn) [Example 1P, 5-(5-{6-[(4-ethylpyridin-2-yl)amino]-4-methylpyridin-2-yl}-1,3-thiazol-2-yl)-5-hydroxy-5,6,7,8-tetrahydronaphthalene-2-carboxylic acid] | < 0.5 |  |
| Cc1cc(Nc2cc(OC(C)C)ccn2)nc(-c2cnc(C3(O)CCCc4cc(C(=O)O)ccc43)s2)c1 (stereo not drawn) [Example 1R, 5-hydroxy-5-[5-(4-methyl-6-{[4-(propan-2-yloxy)pyridin-2-yl]amino}pyridin-2-yl)-1,3-thiazol-2-yl]-5,6,7,8-tetrahydronaphthalene-2-carboxylic acid] | < 0.5 |  |
| Cc1cc(Nc2cc(-c3nnc(C)o3)ccn2)nc(-c2cnc(C3(O)CCCc4cc(C(=O)O)ccc43)s2)c1 (stereo not drawn) [Example 1S, 5-hydroxy-5-[5-(4-methyl-6-{[4-(5-methyl-1,3,4-oxadiazol-2-yl)pyridin-2-yl]amino}pyridin-2-yl)-1,3-thiazol-2-yl]-5,6,7,8-tetrahydronaphthalene-2-carboxylic acid] | < 0.5 |  |
| Cc1cc(Nc2cc(OC3CCOC3)ccn2)nc(-c2cnc(C3(O)CCCc4cc(C(=O)O)ccc43)s2)c1 (stereo not drawn) [Example 1T, 5-hydroxy-5-[5-(4-methyl-6-{[4-(tetrahydrofuran-3-yloxy)pyridin-2-yl]amino}pyridin-2-yl)-1,3-thiazol-2-yl]-5,6,7,8-tetrahydronaphthalene-2-carboxylic acid] | < 0.5 |  |
| Cc1cc(Nc2cc(C3CC3)ccn2)nc(-c2cnc(C3(O)CCCc4cc(C(=O)O)ccc43)s2)c1 (stereo not drawn) [Example 1U, 5-(5-{6-[(4-cyclopropylpyridin-2-yl)amino]-4-methylpyridin-2-yl}-1,3-thiazol-2-yl)-5-hydroxy-5,6,7,8-tetrahydronaphthalene-2-carboxylic acid] | < 0.5 |  |
| Cc1cc(Nc2cc(C(C)C)ccn2)nc(-c2cnc(C3(O)CCCc4cc(C(=O)O)ccc43)s2)c1 (stereo not drawn) [Example 1V, 5-hydroxy-5-[5-(4-methyl-6-{[4-(1-methylethyl)pyridin-2-yl]amino}pyridin-2-yl)-1,3-thiazol-2-yl]-5,6,7,8-tetrahydronaphthalene-2-carboxylic acid] | < 0.5 |  |
| Cc1cc(Nc2cc(C(F)(F)F)ccn2)nc(-c2cnc([C@@]3(O)CCCc4cc(C(=O)NS(=O)(=O)C5CC5)ccc43)s2)c1 [Example 22A, (R)-N-(cyclopropylsulfonyl)-5-hydroxy-5-[5-(4-methyl-6-{[4-(trifluoromethyl)pyridin-2-yl]amino}pyridin-2-yl)-1,3-thiazol-2-yl]-5,6,7,8-tetrahydronaphthalene-2-carboxamide] | < 0.5 |  |
| Cc1cc(Nc2cc(C(F)(F)F)ccn2)nc(-c2cnc([C@@]3(O)CCCc4cc(C(=O)Nc5nnn[nH]5)ccc43)s2)c1 [Example 22E, (R)-5-hydroxy-5-[5-(4-methyl-6-{[4-(trifluoromethyl)pyridin-2-yl]amino}pyridin-2-yl)-1,3-thiazol-2-yl]-N-1H-tetrazol-5-yl-5,6,7,8-tetrahydronaphthalene-2-carboxamide] | < 0.5 |  |
| Oc1cccc(Nc2ncc(F)c(Nc3cccc(O)c3)n2)c1 [Example R112] |  | efficacy versus placebo [2]: lack of efficacy; clinical safety (PGD2): safe across a range of indicators; decrease in PGD2 (PGD2): statistically significant decrease |

Further lines, with some results ahead:

| IC50 [1] [nM] | SMILES | further results |
| --- | --- | --- |
| < 0.5 | Cc1cc(Nc2cc(C(F)(F)F)ccn2)nc(-c2cnc(C3(O)CCCCc4c(C(=O)O)cccc43)s2)c1 (single isomer, unassigned) [Example 15G, (R or S)-5-hydroxy-5-[5-(4-methyl-6-{[4-(trifluoromethyl)pyridin-2-yl]amino}pyridin-2-yl)-1,3-thiazol-2-yl]-6,7,8,9-tetrahydro-5H-benzo[7]annulene-1-carboxylic acid] |  |
| < 0.5 | Cc1cc(Nc2cc(C(F)(F)F)ccn2)nc(-c2cnc(C3(O)CCCCc4c(C(=O)O)cccc43)s2)c1 (single isomer, unassigned) [Example 15H, (R or S)-5-hydroxy-5-[5-(4-methyl-6-{[4-(trifluoromethyl)pyridin-2-yl]amino}pyridin-2-yl)-1,3-thiazol-2-yl]-6,7,8,9-tetrahydro-5H-benzo[7]annulene-1-carboxylic acid] |  |
| < 0.5 | Cc1cc(Nc2cc(C(F)F)ccn2)nc(-c2cnc(C3(O)CCCc4cc(C(=O)O)ccc43)s2)c1 (stereo not drawn) [Example 1A, 5-[5-(6-{[4-(difluoromethyl)pyridin-2-yl]amino}-4-methylpyridin-2-yl)-1,3-thiazol-2-yl]-5-hydroxy-5,6,7,8-tetrahydronaphthalene-2-carboxylic acid] |  |
| < 0.5 | Cc1cc(Nc2cc(N3CCN(CCN)CC3)ccn2)nc(-c2cnc(C3(O)CCCc4cc(C(=O)O)ccc43)s2)c1 (stereo not drawn) [Example 1C, 5-{5-[6-({4-[4-(2-aminoethyl)piperazin-1-yl]pyridin-2-yl}amino)-4-methylpyridin-2-yl]-1,3-thiazol-2-yl}-5-hydroxy-5,6,7,8-tetrahydronaphthalene-2-carboxylic acid] |  |
| < 0.5 | Cc1cc(Nc2cc(N3CCNCC3)ccn2)nc(-c2cnc(C3(O)CCCc4cc(C(=O)O)ccc43)s2)c1 (stereo not drawn) [Example 1D, 5-hydroxy-5-[5-(4-methyl-6-{[4-(piperazin-1-yl)pyridin-2-yl]amino}pyridin-2-yl)-1,3-thiazol-2-yl]-5,6,7,8-tetrahydronaphthalene-2-carboxylic acid] |  |
| < 0.5 | Cc1cc(Nc2cc(-n3cc(C)cn3)ccn2)nc(-c2cnc(C3(O)CCCc4cc(C(=O)O)ccc43)s2)c1 (stereo not drawn) [Example 1E, 5-hydroxy-5-[5-(4-methyl-6-{[4-(4-methyl-1H-pyrazol-1-yl)pyridin-2-yl]amino}pyridin-2-yl)-1,3-thiazol-2-yl]-5,6,7,8-tetrahydronaphthalene-2-carboxylic acid] |  |
| < 0.5 | Cc1cc(Nc2cc(-n3cccn3)ccn2)nc(-c2cnc(C3(O)CCCc4cc(C(=O)O)ccc43)s2)c1 (stereo not drawn) [Example 1F, 5-hydroxy-5-[5-(4-methyl-6-{[4-(1H-pyrazol-1-yl)pyridin-2-yl]amino}pyridin-2-yl)-1,3-thiazol-2-yl]-5,6,7,8-tetrahydronaphthalene-2-carboxylic acid] |  |
